Values joined by “and” are separate entries in the source; they are usually repeats but may differ in a detail not shown here. Identical values can stand only once. Like-named read-outs stand apart in the source and are kept apart here.
Key:
PKG = tested on: PKG; design: method as in PMID 29531030; details: in vitro and in vivo; cited from earlier work
CNGC = tested on: CNGC; design: method as in PMID 29531030; details: in vitro and in vivo; cited from earlier work
[1] = tested on: photoreceptor cells of murine models of RP; design: method as in PMID 29531030; details: in vivo delivered; cited from earlier work
[2] = tested on: 661W-A11 cells stressed with zaprinast; assay: Dose-response curves of cell viability (MTT) under zaprinast stress; type: cell-based, mouse; details: for EC50: read-out: EC50 of cell viability
Procedure: For this analysis, we used the 661W-A11 cells stressed with zaprinast and exposed them to scaling concentrations of either dithio-CN03 or SP-CN03 or CN03-Na^+. The effects were evaluated by the cell viability MTT assay (Figure 5). […] Nevertheless, CN03-Na^+ and SP-CN03 reached up to 70–80% cell viability, while dithio-CN03 could protect rod photoreceptors to almost 100% cell viability at the highest doses (Figure 5). Although dithio-CN03 was considered more hydrophobic, and its entrance in the cells could have been facilitated by this feature, the calculated EC50 was nonetheless similar to more hydrophilic analogues.
661W-A11 cells were seeded in 96-well plates at a density of 6000 cells/well, and the following day they were pretreated with scaling concentrations of either CN03-Na^+ or SP-CN03 or dithio-CN03 for 2 h and then stressed with zaprinast 200 μM in the presence of the compounds for 48 h. Cell viability was assessed by MTT assay (see above for detailed procedure). OD was measured at 570 nm. Data were plotted and EC50 calculated using GraphPad Prism version 7.

[3] = tested on: primary photoreceptor cells derived from rd1 mutant mice; assay: Cell death TUNEL assay in primary photoreceptors; type: cell-based, mouse; details: for neuroprotective effect, cell death (TUNEL): 50 μM added at day 10 of differentiation, read at day 11
Text: To address this possible limitation of the RP model, we tested the CN03 analogues in another RP in vitro cellular model, previously validated for the analysis of cGMP analogues.[10] This model is based on the primary cell culture and differentiation of cells derived from rd1 mutant eyes. The rd1 mouse is one of the best characterized murine models of RP. It carries a mutation in the Phosphodiesterase 6b (Pde6b) gene. Lack of PDE6 function causes high intracellular levels of cGMP in rod photoreceptor cells.[26],[9] […] CN03-Na^+, SP-CN03, and dithio-CN03 were administered to the culture of rd1 mutant cells at a concentration of 50 μM at day 10 of differentiation. The concentration of the compounds and the time of treatment were chosen based on the previously published study in which cGMP inhibitory analogues were tested in this type of primary photoreceptors.[10] Cell death was then analyzed by the TUNEL assay at day 11 of in vitro differentiation.
rd1 mutant mice were purchased from Charles River Italy. The protocol was approved by the Ethical Committee of the University of Modena and Reggio Emilia and by the Italian Ministero della Salute (150/2021-PR). Primary neurospheres were derived from the eyes of rd1 mutant mice, as previously reported.[32] Retinal stem cells in neurospheres were differentiated into photoreceptors, as previously reported.[10]rd1 mutant photoreceptor cells underwent spontaneous cell death after differentiation for 11 days. At day 10, 50 μM of either CN03-Na^+ or SP-CN03 or dithio-CN03 were added to the cells in culture and cell death was assessed 1 day later (day 11 of differentiation) by TUNEL assay (see above for detailed procedure).

[4] = tested on: 661W-A11 cells stressed with zaprinast; assay: Cell viability MTT assay in cells stressed with zaprinast; type: cell-based, mouse; details: 50 μM compound, 200 μM zaprinast for 48 h
Procedure: The neuroprotective activity of the newly developed compounds was then evaluated in 661W-A11 cells stressed with zaprinast. Viability was assessed by an MTT assay.
(§1) 661W-A11 cells were seeded in 96-well plates at a density of 6000 cells/well or in 24-well plates at a density of 20,000 cells/well. Twenty-four h after seeding, cells were pretreated with 50 μM of either CN03-Na^+ or CN03 or SP-CN03 or oxo-CN03 or dithio-CN03 for 2 h, followed by 200 μM zaprinast treatment for 48 h in the presence of the compounds. Control groups were treated with an equal volume of vehicle, H2O or DMSO.
661W-A11 cells were cultured on 96-well plates at a density of 6000 cells/well. After compound treatments, the culture medium was replaced with medium containing 1 mg/mL of MTT (Sigma) and cells were cultured for 90 min at 37 °C. Viability was assessed by MTT assay (see above for detailed procedure). OD was measured at 570 nm.

[5] = Thermal analysis (DSC and TG); type: physicochemical; details: crystal modification I; scan 10 °C/min
Procedure: Finally, we performed thermal analyses on crystal modification I by using differential scanning calorimetry (DSC) and thermogravimetry (TG), both of which confirmed a behavior analogous to that of CN03. There were no observable melting points. Instead, there was only a sharp exothermic event on DSC at 170 °C associated with significant mass loss on TG, which we interpreted as a thermal decomposition of the compound (Figure 1B). It should be noted that decomposition peaks on DSC and TG are not indicative of physical stability (e.g., melting point, and solubility). Since the material was crystalline, it was considered to own a melting point at a higher temperature than this decomposition.
DSC analyses were carried out on a Mettler DSC822e, equipped with a Thermo Haake EK45/MT cooler. The samples were weighed into a 40 μL Al-cup, which was then closed with a pierced lid. The sample was scanned from 25 to 300 °C, with a scan rate of 10 °C/min.
TG was performed on a Mettler TGA/SDTA 851e, equipped with a Haake C50P cooler. Alternatively, thermogravimetric and DSC analyses were carried out simultaneously in a Mettler Toledo TGA/DSC 3+. The samples were weighed into a 100 μL Al-cup, and this was flushed with dry nitrogen gas during the analysis. The sample was scanned from 25 to 300 °C, with a scan rate of 10 °C/min.

661W-A11 cells = assay: Toxicity assay, MTT viability of unstressed cells; type: cell-based, mouse; details: 1 μM to 1 mM, 48 h; dithio-CN03 in DMSO, compared to DMSO vehicle
Text: With the aim of developing a new treatment for RP, we evaluated possible toxic effects of the cGMP analogues on a retinal cell line. The target of the treatment for RP is rod photoreceptors, the cells that die due to increased intracellular levels of cGMP during the progression of retinal degeneration. […] Furthermore, this cell line can be stressed with zaprinast, a phosphodiesterase 6 (PDE6) inhibitor, to increase intracellular cGMP and activate cell death pathways, as found in the RP mutant retina. […] A toxicity test was set up by exposing 661W-A11 cells to increasing doses of the four new TEA salts of CN03: CN03, SP-CN03, oxo-CN03, and dithio-CN03 (Figure 2). Viability of the cells was assessed by an MTT assay that measures cell metabolic activity. […]
661W-A11 cells were seeded in 96-well plates at a density of 6000 cells/well, and the following day they were treated with scaling concentrations of either CN03-Na^+, CN03, SP-CN03, oxo-CN03, or dithio-CN03 for 48 h. […] Cell viability was assessed with MTT (3-(4,5-dimethylthiazol-2-yl)-2,5-diphenyl tetrazolium bromide, Sigma). […] The crystals were shaken for 10 min to dissolve and the optical density (OD) was measured at a wavelength of 570 nm.

[6] = tested on: 661W-A11 cells stressed with zaprinast; assay: Cell death TUNEL assay in cells stressed with zaprinast; type: cell-based, mouse; details: 50 μM compound, 200 μM zaprinast for 48 h
Procedure: Viability assay cannot discriminate between protection from cell death and possible increased proliferation induced by the treatment. To discriminate between these two responses, we analyzed cell death by the TUNEL assay that detects dying cells based on fragmented chromatin. The TUNEL assay confirmed data obtained with the MTT assay (Figure 3B,C).
as §1
661W-A11 cells were seeded in 24-well plates at a density of 20,000 cells/well. After treatments, cells were fixed with 2% paraformaldehyde for 10 min and permeabilized with 1 M Na^+ citrate and 0.1% Triton X-100 on ice for 2 min. Cells were incubated with TUNEL solution “In situ Cell Death Detection Kit” TMR Red (Roche) for 30 min at 37 °C, and cell nuclei were stained with 0.1 μg/mL 4′,6-diamidin-2-fenilindolo (DAPI). […] The quantification of percentage of dead cells was based on the ratio of TUNEL-labeled cells on the total number of cells (DAPI-labeled).

[7] = Aqueous solubility at room temperature (phase solubility, HPLC); type: physicochemical
Procedure: Physicochemical properties of dithio-CN03 were characterized and compared to CN03. […] Salt forms of CN03, for example, were prepared varying in aqueous solubility as low as 0.01 mg/mL.[12] To facilitate future development of reactive crystallizations toward other salt forms, a temperature-dependent solubility was also measured between 20 and 75 °C. The resulting solubility curve can be found in the Supporting Information (Figure S38).
The solubility of dithio-CN03 was measured at room temperature and in quadruplicate by phase solubility techniques. Saturated mixtures of the compound were prepared by adding excess starting material to 4 mL vials containing 2 mL of deionized water. They were allowed to equilibrate for 24 h using mild agitation before recording the pH. The clear solution was separated from the solids by filtration with a Cytiva Whatman Mini-Uniprep polypropylene 0.45 μm filter device and diluted to an appropriate analytical concentration where needed. The sample was then analyzed by HPLC, and the solubility was determined by integrating the area of the peak of interest against a standard curve. The solids were also analyzed by XRPD to record the crystal modification obtained.
Solubility data for dithio-CN03
Table S1: Aqueous solubility at room temperature
Sample mg / mL pH of mixture […]
(1 picture or pasted object on this page, not shown here)

PDE6 purified enzyme = biological target: PDE6 purified enzyme; design: method as in PMID 16123402; details: cited from earlier work
[8] = saturated aqueous mixture, room temperature

O=c1c2nc(Br)n([C@@H]3O[C@@H]4CO[P@@](O)(=S)O[C@H]4[C@H]3O)c2nc2[nH]c(-c3ccccc3)cn12 [CN03, RP-8-Br-PET-cGMPS]
interference with PKG activity (PKG): interfere with PKG activity
block of Ca2+ influx through the CNGC (CNGC): block Ca^2+ influx through the CNGC
preservation of photoreceptor cells [1]: could preserve photoreceptor cells of murine models of RP

O=c1c2nc(Br)n([C@@H]3O[C@@H]4CO[P@@]([O-])(=S)O[C@H]4[C@H]3O)c2nc2[nH]c(-c3ccccc3)cn12.[Na+] [CN03-Na^+]
cell viability reached at the highest doses [2]: 70–80%
EC50 ([2]; 200 μM zaprinast for 48 h, doses 1 μM to 1 mM, MTT): 16.9 µM
neuroprotective effect, cell death (TUNEL) [3]: decreased the percentage of cell death

O=c1c2nc(Br)n([C@@H]3O[C@@H]4CO[P@](O)(=S)O[C@H]4[C@H]3O)c2nc2[nH]c(-c3ccccc3)cn12 [SP-CN03, Triethylammonium SP-8-Bromo-β-phenyl-1,N^2-ethenoguanosine-3′,5′-cyclicmonophosphorothioate]
protective effect on cell viability (MTT) [4]: increasing cell viability
cell viability reached at the highest doses ([2]; 200 μM zaprinast for 48 h, MTT): 70–80%
EC50 ([2]; Mus musculus, 661W-A11, 48 h): 16 µM
neuroprotective effect, cell death (TUNEL) [3]: neuroprotective effect similar to CN03-Na^+
toxicity to photoreceptors ([3]; 50 μM, 24 h): not toxic to photoreceptors

CCN(CC)CC.O=c1c2nc(Br)n([C@@H]3O[C@@H]4COP(=S)(S)O[C@H]4[C@H]3O)c2nc2[nH]c(-c3ccccc3)cn12 (stereo partly drawn) [dithio-CN03, Triethylammonium 8-Bromo-β-phenyl-1,N^2-ethenoguanosine-3′,5′-cyclicmonophosphorodithioate]
exothermic event on DSC with mass loss on TG, interpreted as thermal decomposition [5]: 170 °C
protective effect on cell viability (MTT) [4]: significantly higher protective effects compared to CN03-Na^+
toxicity (cell viability, MTT) (661W-A11 cells): lowest toxicity
protection from cell death (TUNEL) [6]: highest neuroprotective activity
cell viability reached at the highest doses ([2]; 200 μM zaprinast for 48 h, MTT): ~100%
EC50 ([2]; Mus musculus, 661W-A11, 48 h): 20 µM
neuroprotective effect, cell death (TUNEL) [3]: significantly better neuroprotective activity
solubility compared to CN03 ([7]; aqueous): lower solubility
solubility at 24 h ([7]; deionized water, pH 5.6, deionized H2O, room temperature, corresponds to crystal modification II (trihydrate), read-out: aqueous solubility): 1170 µg/mL
solubility at 24 h ([7]; deionized water, pH 5.6, deionized H2O, room temperature, read-out: aqueous solubility): 1800 µM
solubility at 24 h ([7]; deionized water, water, thermodynamic from solid, room temperature, deionized water, 24 h equilibration, read-out: aqueous solubility, single samples 1-4 (Table S1)): 1160 µg/mL
aqueous solubility, single samples 1-4 (Table S1) ([7]; room temperature, deionized water, 24 h equilibration): 1198 µg/mL and 1160 µg/mL and 1169 µg/mL
pH of mixture, Average (Table S1) [7, 8]: 5.6
pH of mixture, single samples 1-4 (Table S1) [7, 8]: 4.7 and 5.6 and 5.9 and 6.3

O=c1c2nc(Br)n([C@@H]3O[C@@H]4COP(=O)(O)O[C@H]4[C@H]3O)c2nc2[nH]c(-c3ccccc3)cn12 [oxo-CN03, Triethylammonium 8-Bromo-β-phenyl-1,N^2-ethenoguanosine-3′,5′-cyclicmonophosphate]
protective effect on cell viability (MTT) [4]: All CN03 compounds, except oxo-CN03, were able to improve cell viability
protection from cell death (TUNEL) [6]: failure of oxo-CN03 to protect

CCCOc1ccccc1-c1nc2nn[nH]c2c(=O)[nH]1 [zaprinast]
Ki (PDE6 purified enzyme): 0.03 µM

Reference: PMC11129186, “New Improved cGMP Analogues to Target Rod Photoreceptor Degeneration” (Journal of Medicinal Chemistry, 2024)
